The results in this text go back to patent US20070249670A1, “Glycogen Phosphorylase Inhibitor Compounds and Pharmaceutical Compositions Thereof” (SMITHKLINE BEECHAM CORPORATION, priority 2004, published 2007).

The target of this experiment is T1, human liver glycogen phosphorylase a (HLGPa) (Homo sapiens, UniProt P06737).
T1 construct: creating a full-length cDNA fused at the 5′ end to codons for methionine-glycine-alanine-histidine; 6xHis tag (leader Met-Gly-Ala-His6-Gly-Gly) (N); made in house; host or cells: E. coli (bacterial expression plasmid pTXK1007LTev)
T1 sequence (P06737 2-847 limits assumed): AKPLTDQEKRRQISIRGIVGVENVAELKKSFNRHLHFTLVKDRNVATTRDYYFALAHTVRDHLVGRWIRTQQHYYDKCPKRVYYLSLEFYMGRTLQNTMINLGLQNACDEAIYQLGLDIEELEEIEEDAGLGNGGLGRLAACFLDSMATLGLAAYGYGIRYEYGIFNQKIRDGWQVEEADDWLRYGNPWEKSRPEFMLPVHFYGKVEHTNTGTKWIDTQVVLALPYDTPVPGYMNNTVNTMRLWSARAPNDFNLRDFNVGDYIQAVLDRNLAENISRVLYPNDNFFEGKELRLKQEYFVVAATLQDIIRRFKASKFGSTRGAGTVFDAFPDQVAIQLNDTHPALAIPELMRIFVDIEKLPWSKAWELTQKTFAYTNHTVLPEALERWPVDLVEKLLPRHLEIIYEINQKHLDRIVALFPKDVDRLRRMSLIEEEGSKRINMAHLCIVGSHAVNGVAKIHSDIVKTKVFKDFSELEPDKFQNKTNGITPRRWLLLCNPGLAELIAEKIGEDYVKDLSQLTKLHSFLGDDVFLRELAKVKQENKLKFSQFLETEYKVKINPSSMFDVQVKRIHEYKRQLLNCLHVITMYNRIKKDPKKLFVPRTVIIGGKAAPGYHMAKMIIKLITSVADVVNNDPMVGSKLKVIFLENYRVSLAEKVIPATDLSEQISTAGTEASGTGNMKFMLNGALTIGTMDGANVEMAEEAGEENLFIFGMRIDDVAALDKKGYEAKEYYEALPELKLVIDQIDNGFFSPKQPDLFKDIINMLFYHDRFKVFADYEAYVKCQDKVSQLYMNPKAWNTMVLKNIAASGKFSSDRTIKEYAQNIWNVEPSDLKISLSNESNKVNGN
In words: Human liver glycogen phosphorylase a enzymatic activity assay (coupled, fluorescent resorufin readout, with and without 10 mM glucose). Format: biochemical. Particulars: human liver glycogen phosphorylase a enzymatic activity assay.

By IC50 is commonly meant the concentration that gives 50% inhibition. Regarding `Cc1cc(F)ccc1-c1cc(C(=O)O)c(NC(=O)Nc2c(Cl)cccc2Cl)s1` [Example 420, 2-({[(2,6-dichlorophenyl)amino]carbonyl}amino)-5-(4-fluoro-2-methylphenyl)-3-thiophenecarboxylic acid], half-maximal inhibition (IC50) required 5640 nM.
The result for `Cc1cc(F)ccc1-c1cc(C(=O)N[C@H](C(=O)O)C2CCCCC2)c(NC(=O)Nc2c(Cl)cccc2Cl)s1` [Example 421, (2S)-cyclohexyl({[2-({[(2,6-dichlorophenyl)amino]carbonyl}amino)-5-(4-fluoro-2-methylphenyl)-3-thienyl]carbonyl}amino)ethanoic acid] reads 1390 nM; that for `Cn1cc(-c2cc(C(=O)O)c(NC(=O)Nc3c(Cl)cccc3Cl)s2)cn1` [Example 422, 2-({[(2,6-dichlorophenyl)amino]carbonyl}amino)-5-(1-methyl-1H-pyrazol-4-yl)-3-thiophenecarboxylic acid], 6340 nM.
Turning to `Cn1cc(-c2cc(C(=O)N[C@H](C(=O)O)C3CCCCC3)c(NC(=O)Nc3c(Cl)cccc3Cl)s2)cn1` [Example 423, (2S)-cyclohexyl({[2-({[(2,6-dichlorophenyl)amino]carbonyl}amino)-5-(1-methyl-1H-pyrazol-4-yl)-3-thienyl]carbonyl}amino)ethanoic acid], it took 260 nM to reach half-maximal inhibition (IC50).
`COc1ccc(-c2cc(C(=O)O)c(NC(=O)Nc3c(C)cc(C)cc3C)s2)cc1` [Example 424, 5-[4-(methyloxy)phenyl]-2-({[(2,4,6-trimethylphenyl)amino]carbonyl}amino)-3-thiophenecarboxylic acid] gave an IC50 of 290 nM.
`COc1ccc(-c2cc(C(=O)N[C@H](C(=O)O)C3CCCCC3)c(NC(=O)Nc3c(C)cc(C)cc3C)s2)cc1` [Example 425, (2S)-cyclohexyl({[5-[4-(methyloxy)phenyl]-2-({[(2,4,6-trimethylphenyl)amino]carbonyl}amino)-3-thienyl]carbonyl}amino)ethanoic acid] displayed an IC50 of 16 nM.
The result for `COc1ccc(-c2cc(C(=O)O)c(NC(=O)Nc3c(Cl)cc(OC(F)(F)F)cc3Cl)s2)cc1` [Example 426, 2-{[({2,6-dichloro-4-[(trifluoromethyl)oxy]phenyl}amino)carbonyl]amino}-5-[4-(methyloxy)phenyl]-3-thiophenecarboxylic acid] reads 1310 nM; that for `COc1ccc(-c2cc(C(=O)N[C@H](C(=O)O)C3CCCCC3)c(NC(=O)Nc3c(Cl)cc(OC(F)(F)F)cc3Cl)s2)cc1` [Example 427, (2S)-cyclohexyl[({2-{[({2,6-dichloro-4-[(trifluoromethyl)oxy]phenyl}amino)carbonyl]amino}-5-[4-(methyloxy)phenyl]-3-thienyl}carbonyl)amino]ethanoic acid], 27 nM; that for `O=C(Nc1sc(-c2ccc(OC(F)(F)F)cc2)cc1C(=O)O)Nc1c(Cl)cc(OC(F)(F)F)cc1Cl` [Example 428, 2-{[({2,6-dichloro-4-[(trifluoromethyl)oxy]phenyl}amino)carbonyl]amino}-5-{4-[(trifluoromethyl)oxy]phenyl}-3-thiophenecarboxylic acid], 1220 nM.
In turn, `O=C(Nc1sc(-c2ccc(OC(F)(F)F)cc2)cc1C(=O)N[C@H](C(=O)O)C1CCCCC1)Nc1c(Cl)cc(OC(F)(F)F)cc1Cl` [Example 429, (2S)-cyclohexyl{[(2-{[({2,6-dichloro-4-[(trifluoromethyl)oxy]phenyl}amino)carbonyl]amino}-5-{4-[(trifluoromethyl)oxy]phenyl}-3-thienyl)carbonyl]amino}ethanoic acid] had an IC50 of 96 nM.
For `Cc1cc(C)c(NC(=O)Nc2sc(-c3ccc(OC(F)(F)F)cc3)cc2C(=O)O)c(C)c1` [Example 430, 5-{4-[(trifluoromethyl)oxy]phenyl}-2-({[(2,4,6-trimethylphenyl)amino]carbonyl}amino)-3-thiophenecarboxylic acid], inhibition was half-maximal at 740 nM (IC50).
The result for `Cc1cc(C)c(NC(=O)Nc2sc(-c3ccc(OC(F)(F)F)cc3)cc2C(=O)N[C@H](C(=O)O)C2CCCCC2)c(C)c1` [Example 431, (2S)-cyclohexyl({[5-{4-[(trifluoromethyl)oxy]phenyl}-2-({[(2,4,6-trimethylphenyl)amino]carbonyl}amino)-3-thienyl]carbonyl}amino)ethanoic acid] reads 330 nM.
In turn, `COc1ccc(-c2cc(NC(=O)Nc3c(Cl)cc(OC(F)(F)F)cc3Cl)c(C(=O)O)s2)cc1` [Example 432, 3-{[({2,6-dichloro-4-[(trifluoromethyl)oxy]phenyl}amino)carbonyl]amino}-5-[4-(methyloxy)phenyl]-2-thiophenecarboxylic acid] displayed a half-maximal inhibitory concentration (IC50) of 2700 nM.
The compound `COc1ccc(-c2cc(NC(=O)Nc3c(Cl)cc(OC(F)(F)F)cc3Cl)c(C(=O)N[C@H](C(=O)O)C3CCCCC3)s2)cc1` [Example 433, (2S)-cyclohexyl[({3-{[({2,6-dichloro-4-[(trifluoromethyl)oxy]phenyl}amino)carbonyl]amino}-5-[4-(methyloxy)phenyl]-2-thienyl}carbonyl)amino]ethanoic acid] gave an IC50 of 80 nM.
In the case of `O=C(Nc1cc(-c2ccc(OC(F)(F)F)cc2)sc1C(=O)O)Nc1c(Cl)cccc1Cl` [Example 434, 3-({[(2,6-dichlorophenyl)amino]carbonyl}amino)-5-{4-[(trifluoromethyl)oxy]phenyl}-2-thiophenecarboxylic acid], the IC50 was 2120 nM.
In turn, `O=C(Nc1cc(-c2ccc(OC(F)(F)F)cc2)sc1C(=O)N[C@H](C(=O)O)C1CCCCC1)Nc1c(Cl)cccc1Cl` [Example 435, (2S)-cyclohexyl{[(3-({[(2,6-dichlorophenyl)amino]carbonyl}amino)-5-{4-[(trifluoromethyl)oxy]phenyl}-2-thienyl)carbonyl]amino}ethanoic acid] came in with a half-inhibitory concentration (IC50) of 1630 nM.
In the case of `Cc1cc(C)c(NC(=O)Nc2cc(-c3ccc(OC(F)(F)F)cc3)sc2C(=O)O)c(C)c1` [Example 436, 5-{4-[(trifluoromethyl)oxy]phenyl}-3-({[(2,4,6-trimethylphenyl)amino]carbonyl}amino)-2-thiophenecarboxylic acid], the IC50 amounted to 1570 nM.
Take `Cc1cc(C)c(NC(=O)Nc2cc(-c3ccc(OC(F)(F)F)cc3)sc2C(=O)N[C@H](C(=O)O)C2CCCCC2)c(C)c1` [Example 437, (2S)-cyclohexyl({[5-{4-[(trifluoromethyl)oxy]phenyl}-3-({[(2,4,6-trimethylphenyl)amino]carbonyl}amino)-2-thienyl]carbonyl}amino)ethanoic acid]: the half-maximal inhibitory concentration (IC50) is 220 nM.
The compound `COc1ccc(-c2cc(NC(=O)Nc3c(C)cc(C)cc3C)c(C(=O)O)s2)cc1` [Example 438, 5-[4-(methyloxy)phenyl]-3-({[(2,4,6-trimethylphenyl)amino]carbonyl}amino)-2-thiophenecarboxylic acid] showed an IC50 of 330 nM.
On to `COc1ccc(-c2cc(NC(=O)Nc3c(C)cc(C)cc3C)c(C(=O)N[C@H](C(=O)O)C3CCCCC3)s2)cc1` [Example 439, (2S)-cyclohexyl({[5-[4-(methyloxy)phenyl]-3-({[(2,4,6-trimethylphenyl)amino]carbonyl}amino)-2-thienyl]carbonyl}amino)ethanoic acid], for which it took 12 nM to reach half-maximal inhibition (IC50).
The result for `COc1ccc(-c2cc(NC(=O)Nc3c(C)cc(C)cc3C)c(C(=O)N[C@H](C(=O)O)C(C)C)s2)cc1` [Example 440] reads 100 nM.
